Among the data in ChEMBL document CHEMBL1129202, “Palladium-catalysed synthesis of some biologically active 5, 6-disubstituted uracils” (Bioorg Med Chem Lett, 1996) are IC50 values, retold here.

Structures are written as SMILES.

In the assay the test system is CCRF-CEM. Kind of assay: In vitro cytotoxic activity against CCRF-CEM human lymphoblastoid cells in culture. The class given is functional, cell-based.
Turning to `Cc1ccc(C(=O)/C=C/c2nc(O)nc(O)c2Cl)cc1`, it took 12200 nM to reach half-maximal inhibition (IC50).

Regarding `Cc1ccc(C(=O)/C=C/c2nc(O)nc(O)c2Br)cc1`, the IC50 (in general, the concentration that inhibits the measured activity by half) worked out at 2600 nM.

`Cc1ccc(C(=O)/C=C/c2nc(O)nc(O)c2I)cc1` yielded an IC50 of 1400 nM.

`COc1ccc(C(=O)/C=C/c2cc(O)nc(O)n2)cc1` returned an IC50 of 2200 nM.

With `Cc1ccc(C(=O)/C=C/c2cc(O)nc(O)n2)cc1`, the IC50 came out at 1800 nM.
